Results from PMC8308524, “Interaction between DNA, Albumin and Apo-Transferrin and Iridium(III) Complexes with Phosphines Derived from Fluoroquinolones as a Potent Anticancer Drug” (Pharmaceuticals, 2021).

Assays:
CT DNA = assay: Competitive fluorescence quenching of CT DNA-DAPI (minor groove binding); design: species or system calf; unit not given here; settings: extended Stern–Volmer plot
Excerpt: It is well known that the cytotoxic activity of various drugs (e.g., fluoroquinolones) depends on interaction with DNA [1]. […] Several well-known DNA binding dyes with well-established binding modes were used: ethidium bromide (EB; intercalation), 4′,6-diamidino-2-phenylindole (DAPI; binding to a minor groove), and methyl green (MG; binding to a major groove). The compounds that can bind to DNA more strongly than the above-mentioned binding dyes (EB, DAPI, or MG) reduce the DNA-binding dye emission due to the replacement of dye. The emission spectra of the CT DNA-binding dye complex were measured at different concentrations of the investigated compounds, (Figure 2; Supplementary Materials, Figures S1–S4).
Furthermore, we conducted a similar competitive experiment using DAPI Figure 3, and Figures S2 and S3 in Supplementary Materials. […] The displacement of bound DAPI from its binding site on CT DNA is much stronger than when EB is used. In order to confirm the quenching mechanism, the fluorescence quenching was analyzed according to Stern–Volmer equations (Figure 3A) and KDSV (dynamic quenching constant) values, which are presented in Figure 3B. Based on Stern–Volmer plots (Figure 3A), the strength of CT DNA-DAPI fluorescence quenching formed the following order: IrPSf > IrPCp > IrPNr > IrPLm.
The stock solution was prepared by dissolving of the calf thymus (CT DNA) in 50 mM phosphate buffer saline (PBS) (pH = 7.4). The CT DNA concentration (C = 5 × 10^−5 M) was determined by a UV spectrophotometer using the molar absorption coefficient […] at 258 nm. The stock solution was stored at 4 °C and used for > 6 days. The luminescent complexes of CT DNA with EB (ethidium bromide), DAPI (4′,6-diamidyno−2-fenyloindol), and MG (methyl green) were prepared by mixing the substrates in the equimolar ratio (CCT DNA-fluorescent dye = 5 × 10^−5 M; 50 mM of the phosphate buffer at pH = 7.4). The solution of the CT DNA fluorescent dye system was titrated in different molar ratios (0.5, 1, 2, 3, 4, 5, 6, 7, 8, 9, and 10) with the tested substances (dissolved in DMSO) and incubated for 1 h for each portion of the investigated compounds. The final concentration of DMSO was 2% in each sample. Photoluminescence measurements were recorded at 298 K using a Cary Eclipse Fluorescence Spectrophotometer. The excitation wavelength was 510 nm for the CT DNA-EB complex, 358 nm for the CT DNA-DAPI complex, and 633 nm for the CT DNA-MG complex. The Inner Filter Effect was considered and the corrected intensity of the emission band was calculated using Equation (1), where: Abs—absorbance at analyzed emission wavelength; If—uncorrected emission intensity. (1) Icor=If 2.303 Abs/ 1−10^Abs
(§1) In order to confirm the quenching mechanism, the fluorescence quenching was analyzed according to Stern–Volmer in Equation (2):(2) I0/I=1+KsvC where I0 and I are the fluorescence intensities in the absence and presence of the quencher, respectively, KSV is the Stern–Volmer quenching constant, and [C] is the concentration of the quencher, respectively.
In same case, it was clearly observed that both static and dynamic quenching occur simultaneously where a nonlinear curve is observed. In such cases, extended Stern–Volmer plots can be used to describe the new situation with the following Equation (3). (3) 1−(I/I0)/C=KDSV(I/I0) +V where I0 and I are the fluorescence intensities in the absence and presence of the quencher, respectively; KDSV is the dynamic quenching constant; [C] is the concentration of the quencher, and V is the volume of the sphere of action. We drew the plots of ([1 − (I/I0)]/[C]) versus I/I0. KDSV is the slope of the plot and the static quenching constant V is calculated from the intercept of the plot.

apo-transferrin (apo-Tf) = molecular target: T1, apo-transferrin (apo-Tf) (Homo sapiens, UniProt P02787); assay: Fluorescence quenching of apo-transferrin; assay type: binding; settings: apo-Tf 3.6 × 10^−6 M, 50 mM phosphate buffer pH 7.4, excitation 295 nm, Stern–Volmer
T1 construct: purchased Sigma–Aldrich (Hamburg, Germany)
Procedure: A solution of apo-Tf was titrated with increasing concentrations of all the tested compounds, and the fluorescence intensity of apo-Tf was monitored spectrophotometrically (Figure 9A; Supplementary Materials, Figures S6 and S7). At the same time, Ksv values were determined from Stern–Volmer plots (Figure 9B, Table 4).
as §1
Apo-transferrin (apo-Tf) solution was prepared by dissolving the solid protein in 50 mM of phosphate-buffered saline (PBS) (pH = 7.4), C (apo-Tf) ≈ 3,6 × 10^− 6 M. The solution of the Tf was titrated in different molar ratios (0.5, 1, 2, 3, 4, 5, 6, 7, 8, 9, and 10) by IrPCp, IrPNr, IrPSf, IrPLm with corresponding phosphines (dissolved in DMSO) and incubated for 1h with any portion from each of the investigated compounds. The final volume of DMSO was 2% in each sample. The excitation wavelength was equal to 295 nm. The spectra of circular dichroism were recorded using a spectropolarimeter JASCO J-715 (CD and MCD).

pBR322 plasmid DNA = assay: DNA strand break analysis by agarose gel electrophoresis; assay type: biochemical; settings: pBR322, 10 to 500 μM, 1 h, 4 h, 24 h
Excerpt: Since intercalation usually results in relatively large changes in the double helix structure, we assumed that all iridium(III) complexes cause severe DNA cleavage. The binding ability of iridium(III) complexes with another DNA model—pBR322 plasmid DNA, was studied by gel electrophoresis as a target. The degree of plasmid degradation, which is naturally present in a superhelical form (form I), to determine the ability of the compounds to induce single- and/or double-strand damage of the DNA was checked. This process can lead to the formation of the relaxed/nicked (form II) and linear (form III) forms. The degree of DNA degradation was determined in a wide range of the tested compounds’ concentrations (from 10 to 500 μM) at three different incubation times: 1 h, 4 h, and 24 h (Figure 4E1–E3).
It was proven by cyclic voltamperometry, and fluorescence spectroscopy that the studied herein Ir(III) compounds can generate high levels of ROS, therefore the effect of additional H2O2 on the overall ROS production and the associated DNA damages caused by this radical pathway. Furthermore, to confirm the generation of particular types of ROS involved in plasmid degradation, the experiment using DMSO (effective scavenger of ^•OH), SOD (effective scavenger of O2^•−), [50] and NaN3 (effective scavenger of ^1O2) was performed. In order to exclude the effect of the hydrogen peroxide influence on plasmid DNA degradation, we performed an additional gel electrophoresis for H2O2 in different concentrations (Supplementary Materials, Figure S8).
The ability of IrPCp, IrPNr, IrPSf, IrPLm, and phosphine ligands to induce single- or double-strand breaks in plasmid DNA was tested with the pBR322 plasmid (C = 0.5 mg/mL). All compounds were dissolved in DMF; the concentration was kept constant (10% by volume) in the final solution with/without hydrogen peroxide (H2O2, C = 50 μM), superoxide dismutase (SOD, C = 0.62 μM), dimethyl sulfoxide (DMSO, C = 1.4 mM), or sodium azide (NaN3, C = 40 mM). The reaction was also monitored after the addition of various groove binders: methyl green (MG, C = 10 mg/mL), and 4′,6-diamidino-2-phenylindole (DAPI, C = 5 mg/mL). After incubation for 1 h at 37°C, reaction mixtures (20 μL) were mixed with 3 μL of loading buffer (bromophenol blue in 30% glycerol) and loaded on 1% agarose gels, containing EB, in TBE buffer (90 Mm Tris–borate, […], pH = 8.0). Gel electrophoresis was performed at a constant voltage of 100V (4 Vcm-1) for 60 min. The gel was photographed and processed with a Digital Imaging System (Syngen Biotech, Wroclaw, Poland).

[1] = molecular target: T2, human serum albumin (HSA) (Homo sapiens, UniProt P02768); assay: Fluorescence quenching of human serum albumin; assay type: binding; settings: 50 mM phosphate buffer pH 7.4, excitation 295 nm, Stern–Volmer
T2 construct: purchased Sigma–Aldrich (Hamburg, Germany)
Excerpt: Interest in studying the interaction of metal ions and their compounds with blood plasma proteins, especially with serum albumin (HSA), the most abundant protein in plasma involved in the transport of drugs through the bloodstream, is increasing. This molecule has two main binding sites: site I is located in subdomain IIA and site II is located in subdomain IIIA. […] Changes in the appearance of the Trp-214 residue emission band in HSA, in the presence of the tested compounds, may indicate changes in the protein’s conformation, the association of its subunits or denaturation, or the binding of the compound to protein [53, 56].
as §1
Human serum albumin (HSA) was dissolved in 50 mM phosphate buffer saline (PBS) (pH = 7.4), C (HSA) ≈ 5 × 10^− 5 M. The solution of the HSA was titrated at different molar ratios (0.5, 1, 2, 3, 4, 5, 6, 7, 8, 9 and 10) by IrPCp, IrPNr, IrPSf, IrPLm and phosphine ligands (dissolved in DMSO) and incubated for 1 h with any portion from each of the investigated compounds. The final volume of DMSO was 2% in each sample. Afterward, substances were incubated with HSA solution for 1h at room temperature. The excitation wavelength was equal to 295 nm.

T1 sequence (P02787 20-698): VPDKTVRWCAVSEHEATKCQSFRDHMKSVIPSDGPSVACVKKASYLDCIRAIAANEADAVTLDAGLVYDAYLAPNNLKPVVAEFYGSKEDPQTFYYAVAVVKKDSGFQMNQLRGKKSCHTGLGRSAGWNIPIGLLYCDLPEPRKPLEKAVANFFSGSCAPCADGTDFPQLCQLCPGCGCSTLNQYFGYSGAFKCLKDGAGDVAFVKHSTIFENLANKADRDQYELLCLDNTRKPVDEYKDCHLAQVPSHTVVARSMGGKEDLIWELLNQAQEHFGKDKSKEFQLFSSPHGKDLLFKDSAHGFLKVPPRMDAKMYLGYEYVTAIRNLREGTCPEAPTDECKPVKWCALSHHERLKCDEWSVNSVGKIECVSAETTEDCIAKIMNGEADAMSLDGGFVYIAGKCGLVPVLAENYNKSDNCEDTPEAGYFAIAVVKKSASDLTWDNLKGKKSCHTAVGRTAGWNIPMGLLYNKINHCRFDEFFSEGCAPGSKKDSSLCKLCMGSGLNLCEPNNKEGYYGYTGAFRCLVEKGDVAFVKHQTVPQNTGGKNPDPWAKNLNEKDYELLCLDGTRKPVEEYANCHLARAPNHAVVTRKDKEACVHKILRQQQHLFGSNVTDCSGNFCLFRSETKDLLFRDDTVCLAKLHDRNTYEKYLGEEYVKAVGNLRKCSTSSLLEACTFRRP
T2 sequence (P02768 25-609): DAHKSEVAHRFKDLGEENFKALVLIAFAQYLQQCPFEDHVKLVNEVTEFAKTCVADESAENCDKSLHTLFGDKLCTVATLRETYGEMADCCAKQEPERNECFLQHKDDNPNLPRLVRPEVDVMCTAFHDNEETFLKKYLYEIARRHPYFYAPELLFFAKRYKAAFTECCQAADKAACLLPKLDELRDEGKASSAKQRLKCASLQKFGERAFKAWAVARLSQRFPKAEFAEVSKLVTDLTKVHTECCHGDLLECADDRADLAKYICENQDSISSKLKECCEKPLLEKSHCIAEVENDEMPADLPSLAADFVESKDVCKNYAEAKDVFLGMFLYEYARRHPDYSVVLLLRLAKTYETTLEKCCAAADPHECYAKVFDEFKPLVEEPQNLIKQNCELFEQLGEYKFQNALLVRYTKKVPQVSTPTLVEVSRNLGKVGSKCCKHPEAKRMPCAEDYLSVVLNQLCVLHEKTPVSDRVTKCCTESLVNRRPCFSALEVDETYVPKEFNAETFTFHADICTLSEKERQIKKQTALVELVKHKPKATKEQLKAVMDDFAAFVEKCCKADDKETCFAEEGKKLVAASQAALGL

Compound	KDSV (dynamic quenching constant) (CT DNA)	V (static quenching constant, volume of the sphere of action) (CT DNA)	Ksv (apo-Tf fluorescence quenching) (apo-transferrin (apo-Tf)) [M⁻¹]	double-strand plasmid damage (formation of linear form III) (pBR322 plasmid DNA)	Ksv (HSA fluorescence quenching) [1] [M⁻¹]
CCn1cc(C(=O)O)c(=O)c2cc(F)c(N3CCN(C[P+](c4ccccc4)(c4ccccc4)[Ir]([Cl])[Cl])C(C)C3)c(F)c21.Cc1c(C)c(C)[c-](C)c1C (racemic) [IrPLm, Ir(η^5-Cp*)Cl2PLm]	2.19×10^3	1.45×10^3	19900	not presumably capable of double-strand plasmid damage	5.06e+06
Cc1c(C)c(C)[c-](C)c1C.O=C(O)c1cn(C2CC2)c2cc(N3CCN(C[P+](c4ccccc4)(c4ccccc4)[Ir]([Cl])[Cl])CC3)c(F)cc2c1=O [IrPCp, Ir(η^5-Cp*)Cl2PCp]	3.21×10^3	2.21×10^3	21800	not presumably capable of double-strand plasmid damage	2.08e+06
CCn1cc(C(=O)O)c(=O)c2cc(F)c(N3CCN(C[P+](c4ccccc4)(c4ccccc4)[Ir]([Cl])[Cl])CC3)cc21.Cc1c(C)c(C)[c-](C)c1C [IrPNr, Ir(η^5-Cp*)Cl2PNr]	1.72×10^3	1.13×10^3	20200	not presumably capable of double-strand plasmid damage	698000
CC1CN(c2c(F)c(N)c3c(=O)c(C(=O)O)cn(C4CC4)c3c2F)CC(C)N1C[P+](c1ccccc1)(c1ccccc1)[Ir]([Cl])[Cl].Cc1c(C)c(C)[c-](C)c1C (stereo not drawn) [IrPSf, Ir(η^5-Cp*)Cl2PSf]	3.62×10^3	2.42×10^3	13200	not presumably capable of double-strand plasmid damage	5.67e+06
CCn1cc(C(=O)O)c(=O)c2cc(F)c(N3CCN(CP(c4ccccc4)c4ccccc4)C(C)C3)c(F)c21 (stereo not drawn) [PLm]			152		5.3
CCn1cc(C(=O)O)c(=O)c2cc(F)c(N3CCN(CP(c4ccccc4)c4ccccc4)CC3)cc21 [PNr]			45.6		
CC1CN(c2c(F)c(N)c3c(=O)c(C(=O)O)cn(C4CC4)c3c2F)CC(C)N1CP(c1ccccc1)c1ccccc1 (stereo not drawn) [PSf]			11000		
